Test results as given in paper PMC9352230 (ACS Omega, 2022).
“Also recorded” adds a separate entry of the source. Like-named read-outs stand apart in the source and are kept apart here.

Columns and labels:
ENPP1 [1] = conditions: read-out: ENPP1 IC50, cited from earlier work
ENPP3 [2] = target: T1, ENPP3 (Homo sapiens, UniProt O14638); test: Enzyme kinetic study, Lineweaver-Burk plots, ENPP3; assay type: biochemical; conditions: triplicates
T1 sequence (O14638 1-875): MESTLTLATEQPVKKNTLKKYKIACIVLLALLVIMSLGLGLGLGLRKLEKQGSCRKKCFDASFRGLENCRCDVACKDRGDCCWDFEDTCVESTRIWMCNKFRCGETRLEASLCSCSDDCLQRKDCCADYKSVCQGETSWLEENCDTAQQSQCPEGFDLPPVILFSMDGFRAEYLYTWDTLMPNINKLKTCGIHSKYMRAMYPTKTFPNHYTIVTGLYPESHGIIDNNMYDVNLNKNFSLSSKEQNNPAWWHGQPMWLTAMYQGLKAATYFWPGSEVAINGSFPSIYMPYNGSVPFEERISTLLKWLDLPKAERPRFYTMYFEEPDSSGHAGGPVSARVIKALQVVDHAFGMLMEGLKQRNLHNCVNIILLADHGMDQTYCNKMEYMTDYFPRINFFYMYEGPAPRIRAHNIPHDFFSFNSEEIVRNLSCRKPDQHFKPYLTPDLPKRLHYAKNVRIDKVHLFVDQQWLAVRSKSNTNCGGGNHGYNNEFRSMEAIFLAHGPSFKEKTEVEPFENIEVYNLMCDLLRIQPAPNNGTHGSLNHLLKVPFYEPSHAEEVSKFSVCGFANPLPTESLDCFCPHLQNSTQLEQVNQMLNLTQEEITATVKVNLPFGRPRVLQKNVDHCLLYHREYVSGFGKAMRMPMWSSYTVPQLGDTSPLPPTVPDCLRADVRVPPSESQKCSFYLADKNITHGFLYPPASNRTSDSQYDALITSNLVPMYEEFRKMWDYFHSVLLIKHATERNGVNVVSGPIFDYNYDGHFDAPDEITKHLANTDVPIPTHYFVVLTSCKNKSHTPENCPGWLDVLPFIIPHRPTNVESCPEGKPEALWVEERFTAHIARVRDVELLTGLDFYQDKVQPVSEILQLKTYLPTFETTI

[3] = test system: MCF7 (human breast cancer cell line); test: MTT cytotoxicity assay, MCF7; assay type: cell-based; conditions: MCF7, 24 h, read-out: MCF7 (% inhibition ±SD)
ENPP3 [4] = target: T1, ENPP3; test: ENPP3 enzyme inhibition assay; assay type: biochemical
ENPP1 [5] = target: T2, ENPP1 (Homo sapiens, UniProt P22413); test: ENPP1 enzyme inhibition assay; assay type: biochemical
T2 sequence (P22413 1-925): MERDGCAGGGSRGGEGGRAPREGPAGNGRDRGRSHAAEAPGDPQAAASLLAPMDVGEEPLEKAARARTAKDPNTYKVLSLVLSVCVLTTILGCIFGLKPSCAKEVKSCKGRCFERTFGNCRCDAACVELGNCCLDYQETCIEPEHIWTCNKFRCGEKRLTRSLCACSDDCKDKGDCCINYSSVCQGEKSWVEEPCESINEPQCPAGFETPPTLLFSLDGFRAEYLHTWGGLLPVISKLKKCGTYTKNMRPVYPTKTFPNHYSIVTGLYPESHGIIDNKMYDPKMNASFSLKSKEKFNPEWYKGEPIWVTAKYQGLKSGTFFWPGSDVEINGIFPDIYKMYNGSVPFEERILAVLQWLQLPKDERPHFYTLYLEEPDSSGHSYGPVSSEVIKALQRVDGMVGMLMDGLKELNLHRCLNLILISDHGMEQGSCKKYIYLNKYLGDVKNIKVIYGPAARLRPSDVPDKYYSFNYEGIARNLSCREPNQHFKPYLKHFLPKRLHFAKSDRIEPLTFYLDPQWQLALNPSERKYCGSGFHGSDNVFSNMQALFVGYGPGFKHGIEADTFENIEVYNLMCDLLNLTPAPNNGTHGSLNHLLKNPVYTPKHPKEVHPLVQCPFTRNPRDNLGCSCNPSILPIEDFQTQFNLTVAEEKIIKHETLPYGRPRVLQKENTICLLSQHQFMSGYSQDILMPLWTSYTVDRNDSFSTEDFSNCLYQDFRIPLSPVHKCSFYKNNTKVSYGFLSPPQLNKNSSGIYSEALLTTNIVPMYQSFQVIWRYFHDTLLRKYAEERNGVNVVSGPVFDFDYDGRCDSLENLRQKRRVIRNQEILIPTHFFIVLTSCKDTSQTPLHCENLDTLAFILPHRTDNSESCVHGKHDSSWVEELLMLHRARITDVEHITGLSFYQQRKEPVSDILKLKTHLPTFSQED

[6] = test system: HEK293 (human embryonic kidney cell line); test: MTT cytotoxicity assay, HEK293; assay type: cell-based; conditions: for inhibition at 100 µM: Homo sapiens, HEK293, 24 h, read-out: HEK293 (% inhibition ±SD)
ENPP1 [7] = target: T2, ENPP1; test: Enzyme kinetic study, Lineweaver-Burk plots, ENPP1; assay type: biochemical; conditions: triplicates
[8] = test system: HeLa (human cervical cancer cell line); test: MTT cytotoxicity assay, HeLa; assay type: cell-based; conditions: 100 μM compound, 24 h treatment, triplicate

SMILES: Cc1ccc(S(=O)(=O)Oc2ccc(-c3sc4cc(OS(=O)(=O)c5ccc(C)cc5)ccc4c3C(=O)c3ccc(OCCN4CCCCC4)cc3)cc2)cc1 [3-(4-(2-(piperidin-1-yl)ethoxy)benzoyl)-2-(4-(tosyloxy)phenyl)benzo[b]thiophen-6-yl-4-methylbenzenesulfonate]
- IC50 (ENPP1 [1]; selective inhibition of ENPP1): 450 nM

SMILES: Cc1ccc(S(=O)(=O)Oc2ccc(NC(=O)C3(C)c4ccccc4-c4ccccc43)cc2)cc1 [7e, 4-(9-Methyl-9H-fluorene-9-carboxamido)phenyl 4-Methylbenzenesulfonate]
- mode of inhibition of ENPP3 (ENPP3 [2]): competitively
- inhibition at 100 µM [3]: 0.3 ± 0.15%
- IC50 (ENPP3 [4]): 380 ± 130 nM
- IC50 (ENPP1 [5]): 18900 ± 540 nM
- inhibition at 100 µM [6]: 12.4 ± 1.42%

SMILES: O=C(NS(=O)(=O)c1ccccc1)n1ccc2cccnc21 [N-(pyrrolo[2,3-b]pyridine-1-carbonyl)benzenesulfonamide]
- IC50 (ENPP1 [1]; selective inhibitor of ENPP1): 4500 ± 160 nM

SMILES: CCCCc1ccc(S(=O)(=O)Oc2ccc(NC(=O)c3ccc(C)cc3)cc2)cc1 [4j, 4-(4-Methylbenzamido)phenyl 4-Butylbenzenesulfonate]
- inhibition at 100 µM [3]: 13.3 ± 0.73%
- mode of inhibition of ENPP1 (ENPP1 [7]): uncompetitive; also recorded: uncompetitively
- inhibition at 100 µM (ENPP3 [4]; read-out: ENPP3 % inhibition ± SD): 42.1 ± 3.43%
- IC50 (ENPP1 [5]): 230 ± 30 nM
- inhibition at 100 µM [6]: 27.6 ± 2.55%

SMILES: N.N.[Cl][Pt][Cl] [cisplatin, reference compound]
- HeLa cell line (% inhibition ±SD) [8]: 84.3 ± 2.72%
- HEK293 (% inhibition ±SD) ([6]; 100 μM compound, MTT, 24 h treatment, triplicate, normal cell line): 65.5 ± 1.48%
